From patent US10246411B2, “(Z)-3,4,5-trimethoxystyrylbenzenesulfonamides as potential anticancer agents” (COUNCIL OF SCIENTIFIC & INDUSTRIAL RESEARCH, priority 2014, dated 2019)

Columns and labels:
HCT-116 = assay: In vitro cytotoxicity (NCI protocol, SRB), HCT-116; conditions: Homo sapiens, HCT-116, 48 h
SR = assay: In vitro cytotoxicity (NCI protocol, SRB), SR; conditions: Homo sapiens, 48 h
SN12C = assay: In vitro cytotoxicity (NCI protocol, SRB), SN12C; conditions: Homo sapiens, 48 h
NCI-H226 = assay: In vitro cytotoxicity (NCI protocol, SRB), NCI-H226; conditions: Homo sapiens, NCI-H226, 48 h
RXF 393 = assay: In vitro cytotoxicity (NCI protocol, SRB), RXF 393; conditions: Homo sapiens, RXF 393, 48 h
NCI-H23 = assay: In vitro cytotoxicity (NCI protocol, SRB), NCI-H23; conditions: Homo sapiens, NCI-H23, 48 h
OVCAR-8 = assay: In vitro cytotoxicity (NCI protocol, SRB), OVCAR-8; conditions: Homo sapiens, OVCAR-8, 48 h
CCRF-CEM = assay: In vitro cytotoxicity (NCI protocol, SRB), CCRF-CEM; conditions: Homo sapiens, 48 h
SK-OV-3 = assay: In vitro cytotoxicity (NCI protocol, SRB), SK-OV-3; conditions: Homo sapiens, SK-OV-3, 48 h
UACC-62 = assay: In vitro cytotoxicity (NCI protocol, SRB), UACC-62; conditions: Homo sapiens, UACC-62, 48 h
MDA-MB-231/ATCC = assay: In vitro cytotoxicity (NCI protocol, SRB), MDA-MB-231/ATCC; conditions: Homo sapiens, MDA-MB-231, 48 h
KM12 = assay: In vitro cytotoxicity (NCI protocol, SRB), KM12; conditions: Homo sapiens, KM12, 48 h
SK-MEL-2 = assay: In vitro cytotoxicity (NCI protocol, SRB), SK-MEL-2; conditions: Homo sapiens, SK-MEL-2, 48 h
K-562 = assay: In vitro cytotoxicity (NCI protocol, SRB), K-562; conditions: Homo sapiens, K562, 48 h
LOX IMVI = assay: In vitro cytotoxicity (NCI protocol, SRB), LOX IMVI; conditions: Homo sapiens, 48 h
DU-145 = assay: In vitro cytotoxicity (NCI protocol, SRB), DU-145; conditions: Homo sapiens, DU-145, 48 h
MDA-MB-435 [1] = assay: In vitro cytotoxicity (NCI protocol, SRB), MDA-MB-435 (breast panel line); conditions: Homo sapiens, MDA-MB-435, 48 h
HL-60(TB) = assay: In vitro cytotoxicity (NCI protocol, SRB), HL-60(TB); type: cell-based; conditions: Homo sapiens, Leukemia HL-60(TB), 48 h exposure
HCT-15 = assay: In vitro cytotoxicity (NCI protocol, SRB), HCT-15; conditions: Homo sapiens, HCT-15, 48 h
NCIH322M = assay: In vitro cytotoxicity (NCI protocol, SRB), NCIH322M; conditions: Homo sapiens, NCI-H322M, 48 h
HOP92 = assay: In vitro cytotoxicity (NCI protocol, SRB), HOP92; conditions: Homo sapiens, HOP-92, 48 h
ACHN = assay: In vitro cytotoxicity (NCI protocol, SRB), ACHN; conditions: Homo sapiens, 48 h
MCF7 = assay: In vitro cytotoxicity (NCI protocol, SRB), MCF7; conditions: Homo sapiens, MCF7, 48 h
786-0 = assay: In vitro cytotoxicity (NCI protocol, SRB), 786-0; conditions: Homo sapiens, 786-0, 48 h
COLO-205 = assay: In vitro cytotoxicity (NCI protocol, SRB), COLO-205; conditions: Homo sapiens, COLO 205, 48 h
SF-539 = assay: In vitro cytotoxicity (NCI protocol, SRB), SF-539; conditions: Homo sapiens, 48 h
BT-549 = assay: In vitro cytotoxicity (NCI protocol, SRB), BT-549; conditions: Homo sapiens, BT-549, 48 h
MDA-MB-435 [2] = assay: In vitro cytotoxicity (NCI protocol, SRB), MDA-MB-435 (melanoma panel); conditions: Melanoma MDA-MB-435, 48 h exposure
SNB -75 = assay: In vitro cytotoxicity (NCI protocol, SRB), SNB -75; conditions: Homo sapiens, SNB-75, 48 h
T-47D = assay: In vitro cytotoxicity (NCI protocol, SRB), T-47D; conditions: Homo sapiens, T47D, 48 h

| Structure (SMILES) | GI50 (HCT-116) [nM] | GI50 (SR) [nM] | GI50 (SN12C) [nM] | GI50 (NCI-H226) [nM] | GI50 (RXF 393) [nM] | GI50 (NCI-H23) [nM] | GI50 (OVCAR-8) [nM] | GI50 (CCRF-CEM) [nM] | GI50 (SK-OV-3) [nM] | GI50 (UACC-62) [nM] | GI50 (MDA-MB-231/ATCC) [nM] | GI50 (KM12) [nM] | GI50 (SK-MEL-2) [nM] | GI50 (K-562) [nM] | GI50 (LOX IMVI) [nM] | GI50 (DU-145) [nM] | GI50 (MDA-MB-435 [1]) [nM] | GI50 (HL-60(TB)) [nM] | GI50 (HCT-15) [nM] | GI50 (NCIH322M) [nM] | further results |
| --- | --- | --- | --- | --- | --- | --- | --- | --- | --- | --- | --- | --- | --- | --- | --- | --- | --- | --- | --- | --- | --- |
| COc1ccc(S(=O)(=O)Nc2cc(/C=C\c3cc(OC)c(OC)c(OC)c3)ccc2OC)cc1 [12a, (Z)-4-methoxy-N-(2-methoxy-5-(3,4,5-trimethoxystyryl)phenyl)benzenesulfonamide] | 79.7 | 70.9 | 682 | 12800 | 81.4 | 480 | 276 | 176 | 96.3 | 49 | 399 | 73.8 | 80.3 | 53 | 272 | 341 | 168 | 195 | 62.3 | 430 | GI50 (HOP92): 97.4 nM; GI50 (ACHN): 58.7 nM; GI50 (MCF7): 42.6 nM; GI50 (786-0): 361 nM; GI50 (COLO-205): 38.3 nM; GI50 (SF-539): 126 nM; GI50 (BT-549): 197 nM; GI50 (MDA-MB-435 [2]; Homo sapiens, MDA-MB-435, 48 h): 27.4 nM; GI50 (SNB -75): 70.8 nM |
| COc1ccc(S(=O)(=O)Nc2cc(/C=C\c3cc(OC)c(OC)c(OC)c3)cc(OC)c2OC)cc1 [13a, (Z)—N-(2,3-dimethoxy-5-(3,4,5-trimethoxystyryl)phenyl)-4-methoxybenzenesulfonamide] | 35 | 35.2 | 69.8 | 27300 | 40.1 | 59.3 | 45.9 | 32.9 | 37.8 | 46.1 | 47.9 | 39.7 | 37.4 | 27.2 | 50 | 41.6 | 42 | 23.4 | 35.8 | 55.3 | GI50 (HOP92): 1750 nM; GI50 (ACHN): 57 nM; GI50 (T-47D): 5210 nM; GI50 (MCF7): 36 nM; GI50 (786-0): 57.9 nM; GI50 (COLO-205): 21.4 nM; GI50 (SF-539): 25.3 nM; GI50 (BT-549): 42.5 nM; GI50 (MDA-MB-435 [2]; Homo sapiens, MDA-MB-435, 48 h): 21.1 nM; GI50 (SNB -75): 26.5 nM |
| COc1ccc(S(=O)(=O)Nc2c(/C=C\c3cc(OC)c(OC)c(OC)c3)ccc(OC)c2O)cc1 [17a, (Z)—N-(2-hydroxy-3-methoxy-6-(3,4,5-trimethoxystyryl)phenyl)-4-methoxybenzenesulfonamide] | 32 | 31.9 | 86.9 | 4130 | 31.8 | 52 | 46.6 | 30.1 | 29.6 | 38.9 | 50.3 | 35.5 | 43.7 | 28.6 | 45.5 | 42.5 | 43.9 | 23.5 | 36.6 | 63.3 | GI50 (HOP92): 1600 nM; GI50 (ACHN): 61.3 nM; GI50 (MCF7): 38 nM; GI50 (786-0): 375 nM; GI50 (COLO-205): 406 nM; GI50 (SF-539): 29.3 nM; GI50 (BT-549): 50.1 nM; GI50 (MDA-MB-435 [2]; Homo sapiens, MDA-MB-435, 48 h): 19 nM; GI50 (MDA-MB-435 [2]): 19.2 nM; GI50 (SNB -75): 25.5 nM |
| COc1ccc(/C=C\c2cc(OC)c(OC)c(OC)c2)c(NS(=O)(=O)c2ccc(Cl)cc2)c1O [17c, (Z)-4-chloro-N-(2-hydroxy-3-methoxy-6-(3,4,5-trimethoxystyryl)phenyl)benzenesulfonamide] | 114 | 30.6 | 708 | 24900 | 35.5 | 288 | 294 | 159 | 229 | 63.5 | 206 | 127 | 65.9 | 32.3 | 153 | 200 | 36.7 | 33.1 | 53 | 485 | GI50 (HOP92): 2360 nM; GI50 (ACHN): 83.8 nM; GI50 (MCF7): 38.4 nM; GI50 (786-0): 572 nM; GI50 (COLO-205): 1740 nM; GI50 (SF-539): 37 nM; GI50 (BT-549): 353 nM; GI50 (MDA-MB-435 [2]; Homo sapiens, MDA-MB-435, 48 h): 22.2 nM; GI50 (SNB -75): 33.1 nM |
